{"source": "paper PMC9115111", "about": "“Metalloprotease Gp63-Targeting Novel Glycoside Exhibits Potential Antileishmanial Activity” (Frontiers in Cellular and Infection Microbiology, 2022)", "assay_type_in_all_cases": "cell-based, Leishmania donovani", "key": {"[1]": {"test_system": "L. donovani intracellular amastigotes in J774.A1 macrophages", "assay": "Intramacrophage amastigote assay (Giemsa staining, J774.A1)", "settings": "treated at IC50 concentration, 24 h; untreated control ~5", "experimental": "For evaluating the efficacy of compounds against intramacrophage amastigotes, Giemsa staining (Sigma-Aldrich) was performed. J774.A1 murine macrophage cells were plated at a cell density of 5 × 10^5 cell/well in a 6-well flat bottom plate. The cells were infected with late-stage L. donovani, rich in promastigotes at a ratio of 10:1. After 6 h, uninfected promastigotes were washed off with PBS."}, "[2]": {"test_system": "L. donovani promastigotes", "assay": "Complement-mediated cytolysis of promastigotes by PI uptake (10% NHS)", "experimental": "Parasites with an optimum 10% non-heat-inactivated normal human serum (NHS) were incubated with Gly2 at 5-µM concentration for 15 min. Promastigote lysis was detected by uptake of PI, by use of a FACS Diva flow cytometer (Beckton-Dickinson, Pharmingen), in accordance with the manufacturer’s protocol. Promastigotes were washed for excessive stain removal and filter block for PI red fluorescence, 510–560 nm was used ([Moreno et al., 2010])."}, "[3]": {"test_system": "L. donovani promastigotes (AG83 strain)", "assay": "LDH cytotoxicity assay on promastigotes, AG83 strain", "settings": "Leishmania donovani; Table 1; activity against promastigotes", "experimental": "Promastigote forms of L. donovani (MHOM/IN/1983/AG83) were cultured at 26°C in M199 (GIBCO, India), pH 7.4, supplemented with 10% (v/v) inactivated fetal bovine serum (FBS, GIBCO, India) and 0.02 mg/ml gentamycin (Life Technologies, USA). The clinical isolate of PKDL, BS12, was obtained as a gift from Prof. Mitali Chatterjee [Department of Pharmacology, Institute of Postgraduate Medical Education and Research (IPGMER), Kolkata, India]. BS12 was routinely cultured at 22°C in M199 (GIBCO, India) with 100 U/ml penicillin-streptomycin (Gibco, Invitrogen, Thermo Fisher Scientific, NY, USA), 8 μM hemin (4 mM stock made in 50% triethanolamine) (Sigma, USA), 25 mM 4-(2-hydroxyethyl)-1-piperazineethanesulfonic acid (HEPES), supplemented with 10% heat-inactivated FBS (GIBCO, India). Cultures were maintained between 10^6 and 10^7 cells/ml for continuous exponential growth. In addition, 1 × 10^6 cells/ml parasite count was constantly maintained for all the experiments ([Ramu et al., 2017]).\nAll the compounds were dissolved in dimethyl sulfoxide (DMSO) (Sigma-Aldrich) for 1 mM stock solution and were screened against promastigotes at a concentration of 5 µM. For Glycosides (Gly) 2, 6, and 8, a range of concentrations starting from 100 nM to 100 µM were screened against promastigote forms of parasite and mammalian cells. Parasites (AG83 and PKDL strain) treated with amphotericin B (3 µg/ml) (Sigma-Aldrich) were maintained as the positive control.\nAG83 strain of L. donovani were exposed to various Gly compound concentrations (100 nM–100 µM) in a 96-well microtiter plate (100 µl/well volume) and were incubated for 72 h at 26°C. Finally, lactate dehydrogenase (LDH) cytotoxic assay was performed as per standard protocol (CytoTox 96 Non-Radioactive Cytotoxicity Assay-Promega, USA). The percent cytotoxicity of test compounds was calculated by normalizing with amphotericin B as 100%. Further percentage growth inhibition was calculated using the formula:\n% Growth Inhibition = Gly treated LDH activity- Spontaneous LDH activity\n/Maximum LDH activity- Spontaneous LDH activity * 100\nAs per the formula, the spontaneous LDH Activity = activity of the untreated cells and the maximum LDH activity = activity of the amphotericin B-treated cells. IC50 value for Gly2, 6, and 8 treated was generated for AG83 and PKDL strain of L. donovani using sigmoidal dose–response model with nonlinear regression tool ([Ramu et al., 2017])."}}}
{"smiles": "CC(C)CCOC1O[C@H](CO)[C@@H](O)[C@H](O)[C@H]1O", "note": "(stereo partly shown) [Gly2]", "values": [{"measurement": "number of amastigotes per infected macrophage", "setting": "[1]", "result": "~ 1 amastigotes/macrophages"}, {"measurement": "promastigote death (PI uptake)", "setting": "[2]; 10% NHS, Gly2 at 5 µM where treated, control in 10% heat-inactivated FBS 0.06%", "result": "~ 80%"}, {"measurement": "increment in PI uptake", "setting": "[2]; Gly2 + 10% NHS vs 10% NHS alone", "result": 24.65, "unit": "%"}, {"measurement": "IC50", "setting": "[3]", "result": 1130, "unit": "nM"}]}
